Data: patent US9084758B2, “Antiviral compositions comprising ethanol extract of Tetracera scandens and use thereof” (The Catholic University of Korea Industry-Academic …, priority 2012, dated 2015)

What was measured:
[1] = tested on: human immunodeficiency virus (HIV); test: Antiviral activity in HIV-infected (Nef substituted with EGFP) MT-4 cells: GFP fluorescence, HIV-1 p24 Antigen Capture Assay; format: cell-based; details: 1 nM, 3 days
Experimental: Thereafter, the cultured cells were centrifuged at 6,000 rpm for 3 minutes to obtain a cell pallet. Then, fluorescence intensity of a green fluorescence protein (GFP) secreted from the obtained cells was measured, a level of viral infection was confirmed using an HIV-1 p24 Antigen Capture Assay kit (Advanced BioScience Laboratories), and cell viability was determined using an MTT assay. 0.5% DMSO and 1 nM 3′-azido-3′-deoxy-thyminine (AZT) were used as the negative and positive controls, respectively.

[2] = target: HIV reverse transcriptase (Human immunodeficiency virus type 1 group M subtype B, UniProt P04585); test: Inhibition of reverse transcriptase activity, Enzchek Reverse Transcriptase assay kit; format: biochemical; details: positive controls, FIG. 3

| SMILES | antiviral activity [1] [%] | inhibition of reverse transcriptase activities (in words) [2] |
| --- | --- | --- |
| Cc1cn([C@H]2C[C@H](N=[N+]=[N-])[C@@H](CO)O2)c(=O)[nH]c1=O [AZT, 3′-azido-3′-deoxy-thyminine] | 49.8 | not inhibited |
| Cc1cc(C#N)cc(C)c1Oc1nc(Nc2ccc(C#N)cc2)nc(N)c1Br [Etravirine] | – | increasingly expressed according to a concentration |
| Cc1cn([C@H]2C[C@H](N=[N+]=[N-])[C@@H](CO[P@](=O)(O)O[P@](=O)(O)OP(=O)(O)O)O2)c(=O)[nH]c1=O [AZTTP] | – | increasingly expressed according to a concentration |
